Values quoted from earlier work in the CATMoS acute toxicity set (Mansouri et al. 2021).

Experiment: rat acute oral toxicity
Details: in vivo

First: Cc1cccc2ccccc12
Second: CC(C)c1s[nH]c2nc(C(C)(C)C)nc(=O)c1-2
The LD50 of the first is 5.5-fold lower: 1840 mg/kg for the first, 10200 mg/kg for the second.

For C=C(F)C(=O)OCC(F)(F)C(F)F, the LD50 is listed as 60 mg/kg.
